We go through six molecules from patent publication US5457105A, “Quinazoline derivatives useful for treatment of neoplastic disease” (Zeneca Limited, priority 1992, dated 1995).

Some results are limits rather than exact numbers.

The IC50 is the concentration needed to halve the response being measured. Read a low IC50 as greater potency. The ED50 is the dose at which the effect has come halfway, by size or by number of responders. Read a low ED50 as greater potency.

Experiment [1] concerns human naso-pharyngeal cancer cell line KB. Description: Test (b): in vitro inhibition of growth of the human naso-pharyngeal cancer cell line KB. The format is cell-based. The settings on record: KB cells, EGF (10 ng/ml), 3 days, MTT. The method, then: (b) An in vitro assay which determines the ability of a test compound to inhibit the growth of the human naso-pharyngeal cancer cell line KB.
KB cells were seeded into wells at a density of 1×10^4 -1.5×10^4 cells per well and grown for 24 hours in DMEM supplemented with 5% FCS (charcoal-stripped). Cell growth was determined after incubation for 3 days by the extent of metabolism of MTT tetrazolium dye to furnish a bluish colour. Cell growth was then determined in the presence of EGF (10 ng/ml) or in the presence of EGF (10 ng/ml) and a test compound at a range of concentrations. An IC50 value could then be calculated.

The next experiment concerns the target T1, receptor tyrosine kinase (Homo sapiens, UniProt P00533).
T1 construct: obtained in partially purified form from A-431 cells; endogenous in cells; host or cells: A-431 cells (human vulval carcinoma); detergent-solubilised membrane fraction
Description: Test (a): in vitro inhibition of the enzyme receptor tyrosine kinase (from A-431 cells). The settings on record: EGF, 25° C., 10 minutes. It counts as biochemical. As for the experimental part: (a) An in vitro assay which determines the ability of a test compound to inhibit the enzyme receptor tyrosine kinase. Receptor tyrosine kinase was obtained in partially purified form from A-431 cells (derived from human vulval carcinoma) by procedures related to those described by Carpenter et al., J. Biol. Chem., 1979, 254, 4884, Cohen et al., J. Biol. Chem., 1982, 257, 1523 and by Braun et al., J. Biol. Chem., 1984, 259, 2051.
A-431 cells were grown to confluence using Dulbecco's modified Eagle's medium (DMEM) containing 5% fetal calf serum (FCS). The obtained cells were homogenised in a hypotonic borate/EDTA buffer at pH 10.1. The homogenate was centrifuged at 400 g for 10 minutes at 0°-4° C. The supernatant was centrifuged at 25,000 g for 30 minutes at 0°-4° C. The pelleted material was suspended in 30 mM Hepes buffer at pH 7.4 containing 5% glycerol, 4 mM benzamidine and 1% Triton X-100, stirred for 1 hour at 0°-4° C., and recentrifuged at 100,000 g for 1 hour at 0°-4° C. The supernatant, containing solubilised receptor tyrosine kinase, was stored in liquid nitrogen.
For test purposes 40 μl of the enzyme solution so obtained was added to a mixture of 400 μl of a mixture of 150 mM Hepes buffer at pH 7.4, 500 μM sodium orthovanadate, 0.1% Triton X-100, 10% glycerol, 200 μl water, 80 μl of 25 mM DTT and 80 µl of a mixture of 12.5 mM manganese chloride, 125 mM magnesium chloride and distilled water. There was thus obtained the test enzyme solution.
Each test compound was dissolved in dimethylsulphoxide (DMSO) to give a 50 mM solution which was diluted with 40 mM Hepes buffer containing 0.1% Triton X-100, 10% glycerol and 10% DMSO to give a 500 μM solution. Equal volumes of this solution and a solution of epidermal growth factor (EGF; 20 μg/ml) were mixed.
[γ-^32 P]ATP (3000 Ci/mM, 250 μCi) was diluted to a volume of 2 ml by the addition of a solution of ATP (100 μM) in distilled water. An equal volume of a 4 mg/ml solution of the peptide Arg-Arg-Leu-Ile-Glu-Asp-Ala-Glu-Tyr-Ala-Ala-Arg-Gly in a mixture of 40 mM Hepes buffer at pH 7.4, 0.1% Triton X-100 and 10% glycerol was added.
The test compound/EGF mixture solution (5 μl) was added to the test enzyme solution (10 μl) and the mixture was incubated at 0°-4° C. for 30 minutes. The ATP/peptide mixture (10 μl) was added and the mixture was incubated at 25° C. for 10 minutes. The phosphorylation reaction was terminated by the addition of 5% trichloroacetic acid (40 μl) and bovine serum albumin (BSA; 1 mg/ml, 5 μl). The mixture was allowed to stand at 4° C. for 30 minutes and then centrifuged. […] Radioactivity present in the filter paper was measured using a liquid scintillation counter (Sequence A). […]
The extent of inhibition was then determined at a range of concentrations of test compound to give an IC50 value.

The test system of experiment [2] is liver hepatocyte growth caused by the administration of the growth factor TGFα. Put plainly: Test (c): in vivo inhibition of TGFα-stimulated liver hepatocyte growth in male rats. The arrangement: species or system rat. To be noted: usually orally, TGFα 400 μg/kg subcutaneously, inhibition of BrdU uptake, approximate ED50. As for the experimental part: Cell-growth in the control and test animals is determined as follows: On the morning of the day after the dosing of the test compound (or 0.5% polysorbate in the control group), the animals are dosed with bromodeoxyuridine (BrdU; 100 mg/kg intraperitoneally). The animals are killed four hours later and the livers are excised. […] Further tests were carried out using a range of doses of the test compounds to allow the calculation of an approximate ED50 value for the inhibition of liver hepatocyte proliferation as determined by inhibition of the uptake of BrdU.

Experiment [3] relates to another carcinoma which does not express EGF receptor tyrosine kinase. The settings on record: carcinoma not expressing EGF receptor tyrosine kinase; Toi et al. 1990; cited from earlier work.
Experiment [4] deals with human mammary carcinoma which expresses epidermal growth factor (EGF) receptor tyrosine kinase. The settings on record: athymic nude mice; EGF receptor tyrosine kinase expressing; Toi et al. 1990; cited from earlier work.

T1 sequence (P00533 25-1210): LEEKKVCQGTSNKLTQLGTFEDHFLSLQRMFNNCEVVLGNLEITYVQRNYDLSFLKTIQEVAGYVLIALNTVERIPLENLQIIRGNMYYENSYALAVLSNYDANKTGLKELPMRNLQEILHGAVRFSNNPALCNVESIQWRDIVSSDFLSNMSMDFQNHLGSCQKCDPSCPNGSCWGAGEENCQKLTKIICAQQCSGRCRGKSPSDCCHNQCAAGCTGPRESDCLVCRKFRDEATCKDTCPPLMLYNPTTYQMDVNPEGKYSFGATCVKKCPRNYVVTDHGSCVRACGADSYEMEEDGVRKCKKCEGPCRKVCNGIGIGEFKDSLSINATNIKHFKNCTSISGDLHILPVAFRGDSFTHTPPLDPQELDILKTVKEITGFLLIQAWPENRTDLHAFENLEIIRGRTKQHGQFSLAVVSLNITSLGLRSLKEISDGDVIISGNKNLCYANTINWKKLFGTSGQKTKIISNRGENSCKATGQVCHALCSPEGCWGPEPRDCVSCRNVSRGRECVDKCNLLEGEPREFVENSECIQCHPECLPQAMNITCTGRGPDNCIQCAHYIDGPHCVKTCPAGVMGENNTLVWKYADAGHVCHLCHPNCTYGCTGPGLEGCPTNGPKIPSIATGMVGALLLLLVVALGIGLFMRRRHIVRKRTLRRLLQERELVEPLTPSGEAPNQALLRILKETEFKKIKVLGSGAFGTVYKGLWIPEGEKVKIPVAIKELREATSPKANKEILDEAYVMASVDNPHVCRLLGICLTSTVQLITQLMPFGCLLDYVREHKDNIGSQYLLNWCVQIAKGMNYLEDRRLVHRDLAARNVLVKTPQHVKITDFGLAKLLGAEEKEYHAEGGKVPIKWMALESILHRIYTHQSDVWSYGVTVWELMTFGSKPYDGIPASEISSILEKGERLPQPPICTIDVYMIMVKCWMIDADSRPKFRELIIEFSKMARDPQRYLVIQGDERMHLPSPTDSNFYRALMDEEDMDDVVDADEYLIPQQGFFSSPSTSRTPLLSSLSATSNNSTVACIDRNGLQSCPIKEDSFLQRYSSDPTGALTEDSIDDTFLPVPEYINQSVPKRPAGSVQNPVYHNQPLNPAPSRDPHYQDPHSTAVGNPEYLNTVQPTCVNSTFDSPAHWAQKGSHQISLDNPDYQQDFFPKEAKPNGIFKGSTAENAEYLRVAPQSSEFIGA

`CC(=O)Nc1ccc2ncnc(Nc3cccc(C)c3)c2c1` [6-acetamido-4-(3'-methylanilino)quinazoline]: the IC50 in experiment [1] (Homo sapiens, 72 h) was determined as 650 nM; against receptor tyrosine kinase, 10 nM.
In turn, `COc1cc2ncnc(Nc3cccc(C)c3)c2cc1OC` [6,7-dimethoxy-4-(3'-methylanilino)quinazoline] returned an ED50 in experiment [2] (Rattus norvegicus, Hepatocyte, po) of less than 5 mg/kg. Also, the IC50 in experiment [1] (Homo sapiens, 72 h) worked out at 50 nM; against receptor tyrosine kinase, 5 nM.
On to `COc1cc2c(Nc3cccc(C)c3)ncnc2cc1OCCO` [7-(2-hydroxyethoxy)-6-methoxy-4-(3'-methylanilino)quinazoline], for which the IC50 in experiment [1] (Homo sapiens, 72 h) worked out at 140 nM; on receptor tyrosine kinase, 5 nM.
`Cc1cccc(Nc2ncnc3ccc(N)cc23)c1` [6-amino-4-(3'-methylanilino)quinazoline]: in experiment [2], the “ED50 in Test (c)” value is less than 5 mg/kg. Moreover, in experiment [1], half-maximal inhibition (IC50) was put at 1000 nM.
`O=CN/C=C/c1cc(O)ccc1O` [erbstatin]: in experiment [3], the “growth of another carcinoma” value was “without effect”. In addition, the “growth of transplanted human mammary carcinoma” value in experiment [4] is reported as “specifically attenuates the growth”.
For the molecule `COc1cc2ncnc(Nc3cccc(C(F)(F)F)c3)c2cc1OC` [6,7-dimethoxy-4-(3'-trifluoromethylanilino)quinazoline], the IC50 in experiment [1] (Homo sapiens, 72 h) amounted to 300 nM; at receptor tyrosine kinase it was 10 nM.
